What all share (format): functional
The subject of one test is Candida parapsilosis. The test is described as follows: Antifungal activity against Candida parapsilosis ATCC 22019 by CLSI two fold serial dilution method. Conditions: Lodderomyces parapsilosis.
Test [1] has as its system Staphylococcus aureus. The test is described as follows: Antibacterial activity against methicillin-resistant Staphylococcus aureus N315 after 18 to 24 hrs by CLSI two fold serial dilution method.
In a further test the test system is Acinetobacter baumannii. The test can be described thus: Antibacterial activity against drug-resistant Acinetobacter baumannii after 18 to 24 hrs by CLSI two fold serial dilution method.
The test system of test [2] is Candida albicans. The test can be described thus: Antifungal activity against Candida albicans ATCC 76615 by CLSI two fold serial dilution method.
The test system of the next test is Micrococcus luteus. The test is described as follows: Antibacterial activity against Micrococcus luteus ATCC 4698 after 18 to 24 hrs by CLSI two fold serial dilution method.
For test [3], the system named is Staphylococcus aureus. The test is described as follows: Antibacterial activity against Staphylococcus aureus ATCC 25923 after 18 to 24 hrs by CLSI two fold serial dilution method.
A further test relates to Saccharomyces cerevisiae. The test can be described thus: Antifungal activity against Saccharomyces cerevisiae ATCC 9763 by CLSI two fold serial dilution method.
The test system of the next test is Pichia norvegensis. The test is described as follows: Antifungal activity against Candida mycoderma ATCC 96918 by CLSI two fold serial dilution method.
Test [4] concerns Pseudomonas aeruginosa. The test can be described thus: Antibacterial activity against drug-resistant Pseudomonas aeruginosa after 18 to 24 hrs by CLSI two fold serial dilution method.
The test system of the next test is Klebsiella pneumoniae. The test can be described thus: Antibacterial activity against drug-resistant Klebsiella pneumoniae after 18 to 24 hrs by CLSI two fold serial dilution method.
The subject of the next test is Bacillus subtilis. The test is described as follows: Antibacterial activity against Bacillus subtilis ATCC 21216 after 18 to 24 hrs by CLSI two fold serial dilution method.
A further test relates to Enterococcus faecalis. The test is described as follows: Antibacterial activity against drug-resistant Enterococcus faecalis after 18 to 24 hrs by CLSI two fold serial dilution method.
In test [5] the test system is Escherichia coli. The test can be described thus: Antibacterial activity against Escherichia coli DH52 after 18 to 24 hrs by CLSI two fold serial dilution method.
In the next test the test system is Cyberlindnera jadinii. The test can be described thus: Antifungal activity against Candida utilis ATCC 9950 by CLSI two fold serial dilution method. Conditions: Williopsis jadinii.
Another test has as its system Aspergillus fumigatus. The test is described as follows: Antifungal activity against drug-resistant Aspergillus fumigatus by CLSI two fold serial dilution method.
For another test, the system named is Aspergillus flavus. The test can be described thus: Antifungal activity against Aspergillus flavus ATCC 204304 by CLSI two fold serial dilution method.
In test [6] the test system is Escherichia coli. The test is described as follows: Antibacterial activity against drug-resistant Escherichia coli after 18 to 24 hrs by CLSI two fold serial dilution method.
Test [7] deals with Pseudomonas aeruginosa. The test can be described thus: Antibacterial activity against Pseudomonas aeruginosa ATCC 27853 after 18 to 24 hrs by CLSI two fold serial dilution method.
In test [8] the test system is Candida albicans. The test can be described thus: Antifungal activity against drug-resistant Candida albicans by CLSI two fold serial dilution method.
In another test the test system is Candida tropicalis. The test can be described thus: Antifungal activity against drug-resistant Candida tropicalis by CLSI two fold serial dilution method.

≈ marks a conversion by molar mass, not a printed value.

As for `C=CCOc1c(OC)cc(/C=N/NC(N)=S)c2c1CN1CCc3cc4c(cc3C1C2)OCO4` (stereo unspecified), the MIC was found to be 30 µM (≈ 14 µg/mL) with Candida parapsilosis; 70 µM (≈ 32.7 µg/mL) with Staphylococcus aureus [1]; 70 µM (≈ 32.7 µg/mL) against Acinetobacter baumannii; 140 µM (≈ 65.3 µg/mL) against Candida albicans [2]; 270 µM (≈ 126 µg/mL) in the test on Micrococcus luteus; 70 µM (≈ 32.7 µg/mL) against Staphylococcus aureus [3]. Further, the MIC in the test on Saccharomyces cerevisiae turned out to be 550 µM (≈ 257 µg/mL); with Pichia norvegensis, 270 µM (≈ 126 µg/mL); in the test on Pseudomonas aeruginosa [4], 140 µM (≈ 65.3 µg/mL); in the test with Klebsiella pneumoniae it was 550 µM (≈ 257 µg/mL); in the test with Bacillus subtilis, 270 µM (≈ 126 µg/mL); with Enterococcus faecalis, 140 µM (≈ 65.3 µg/mL). Further, the MIC with Escherichia coli [5] is 140 µM (≈ 65.3 µg/mL); in the test on Cyberlindnera jadinii, 270 µM (≈ 126 µg/mL); with Aspergillus fumigatus, 70 µM (≈ 32.7 µg/mL); against Aspergillus flavus, 270 µM (≈ 126 µg/mL); in the test with Escherichia coli [6], 140 µM (≈ 65.3 µg/mL); in the test with Pseudomonas aeruginosa [7], 140 µM (≈ 65.3 µg/mL). The MIC is 140 µM (≈ 65.3 µg/mL) with Candida albicans [8] and 70 µM (≈ 32.7 µg/mL) with Candida tropicalis.

Consider `COc1cc(/C=N/NC(N)=S)c2c(c1OCC#N)CN1CCc3cc4c(cc3C1C2)OCO4` (stereo unspecified), for which the MIC in the test on Candida parapsilosis, in the test on Staphylococcus aureus [1], against Acinetobacter baumannii, against Candida albicans [2], against Micrococcus luteus and with Staphylococcus aureus [3] was 280 µM (≈ 130 µg/mL) in each case. In addition, the MIC came out at 280 µM (≈ 130 µg/mL) against Saccharomyces cerevisiae; 550 µM (≈ 256 µg/mL) in the test with Pichia norvegensis; 280 µM (≈ 130 µg/mL) with Pseudomonas aeruginosa [4]; 550 µM (≈ 256 µg/mL) against Klebsiella pneumoniae; 550 µM (≈ 256 µg/mL) against Bacillus subtilis; 280 µM (≈ 130 µg/mL) against Enterococcus faecalis. Moreover, the MIC was 280 µM (≈ 130 µg/mL) against Escherichia coli [5]; 280 µM (≈ 130 µg/mL) in the test with Cyberlindnera jadinii; 70 µM (≈ 32.6 µg/mL) in the test with Aspergillus fumigatus; 280 µM (≈ 130 µg/mL) in the test with Aspergillus flavus; 280 µM (≈ 130 µg/mL) in the test on Escherichia coli [6]; 280 µM (≈ 130 µg/mL) in the test on Pseudomonas aeruginosa [7]. The MIC in the test on Candida albicans [8] and with Candida tropicalis was 280 µM (≈ 130 µg/mL) in each case.

As for `COc1cc(/C=N/NC(N)=S)c2c(c1OCc1ccc(F)cc1)CN1CCc3cc4c(cc3C1C2)OCO4` (stereo unspecified), the MIC was 60 µM (≈ 32.1 µg/mL) against Candida parapsilosis; 120 µM (≈ 64.2 µg/mL) against Staphylococcus aureus [1]; 8 µM (≈ 4.28 µg/mL) in the test on Acinetobacter baumannii; 120 µM (≈ 64.2 µg/mL) against Candida albicans [2]; 480 µM (≈ 257 µg/mL) in the test with Micrococcus luteus; 120 µM (≈ 64.2 µg/mL) with Staphylococcus aureus [3]. Further, the MIC came out at 240 µM (≈ 128 µg/mL) with Saccharomyces cerevisiae; 240 µM (≈ 128 µg/mL) in the test on Pichia norvegensis; 240 µM (≈ 128 µg/mL) against Pseudomonas aeruginosa [4]; 480 µM (≈ 257 µg/mL) in the test with Klebsiella pneumoniae; 480 µM (≈ 257 µg/mL) with Bacillus subtilis; 120 µM (≈ 64.2 µg/mL) against Enterococcus faecalis. Also, the MIC came out at 240 µM (≈ 128 µg/mL) against Escherichia coli [5]; 480 µM (≈ 257 µg/mL) against Cyberlindnera jadinii; 120 µM (≈ 64.2 µg/mL) in the test on Aspergillus fumigatus; 480 µM (≈ 257 µg/mL) against Aspergillus flavus; 240 µM (≈ 128 µg/mL) in the test with Escherichia coli [6]; 240 µM (≈ 128 µg/mL) in the test with Pseudomonas aeruginosa [7]. For the same molecule, the MIC in the test with Candida albicans [8] and with Candida tropicalis was 120 µM (≈ 64.2 µg/mL) each time.

For `COc1cc(/C=N/NC(N)=S)c2c(c1OCc1ccc([N+](=O)[O-])cc1)CN1CCc3cc4c(cc3C1C2)OCO4` (stereo unspecified), the MIC in the test with Candida parapsilosis turned out to be 110 µM (≈ 61.8 µg/mL); in the test with Staphylococcus aureus [1] it was 230 µM (≈ 129 µg/mL); in the test with Acinetobacter baumannii, 460 µM (≈ 258 µg/mL); in the test with Candida albicans [2], 230 µM (≈ 129 µg/mL); with Micrococcus luteus, 110 µM (≈ 61.8 µg/mL); in the test with Staphylococcus aureus [3], 230 µM (≈ 129 µg/mL). The MIC against Saccharomyces cerevisiae was 460 µM (≈ 258 µg/mL); with Pichia norvegensis, 230 µM (≈ 129 µg/mL); against Pseudomonas aeruginosa [4], 230 µM (≈ 129 µg/mL); with Klebsiella pneumoniae, 460 µM (≈ 258 µg/mL); against Bacillus subtilis, 460 µM (≈ 258 µg/mL); against Enterococcus faecalis, 230 µM (≈ 129 µg/mL). Moreover, the MIC against Escherichia coli [5] turned out to be 110 µM (≈ 61.8 µg/mL); with Cyberlindnera jadinii, 460 µM (≈ 258 µg/mL); in the test on Aspergillus fumigatus it was 460 µM (≈ 258 µg/mL); against Aspergillus flavus, 460 µM (≈ 258 µg/mL); against Escherichia coli [6], 110 µM (≈ 61.8 µg/mL); against Pseudomonas aeruginosa [7], 230 µM (≈ 129 µg/mL). Moreover, the MIC in the test on Candida albicans [8] is 230 µM (≈ 129 µg/mL); against Candida tropicalis it was 460 µM (≈ 258 µg/mL).

Consider `CCOc1c(OC)cc(/C=N/NC(N)=S)c2c1CN1CCc3cc4c(cc3C1C2)OCO4` (stereo unspecified), for which the MIC with Candida parapsilosis is 70 µM (≈ 31.8 µg/mL); against Staphylococcus aureus [1], 140 µM (≈ 63.6 µg/mL); with Acinetobacter baumannii, 140 µM (≈ 63.6 µg/mL); in the test on Candida albicans [2], 140 µM (≈ 63.6 µg/mL); against Micrococcus luteus, 140 µM (≈ 63.6 µg/mL); in the test with Staphylococcus aureus [3] it was 70 µM (≈ 31.8 µg/mL). Moreover, the MIC in the test with Saccharomyces cerevisiae stood at 280 µM (≈ 127 µg/mL); in the test with Pichia norvegensis it was 280 µM (≈ 127 µg/mL); against Pseudomonas aeruginosa [4] it was 70 µM (≈ 31.8 µg/mL); against Klebsiella pneumoniae it was 280 µM (≈ 127 µg/mL); with Bacillus subtilis, 280 µM (≈ 127 µg/mL); in the test on Enterococcus faecalis it was 140 µM (≈ 63.6 µg/mL). Further, the MIC in the test with Escherichia coli [5] is 280 µM (≈ 127 µg/mL); against Cyberlindnera jadinii, 280 µM (≈ 127 µg/mL); with Aspergillus fumigatus, 140 µM (≈ 63.6 µg/mL); in the test with Aspergillus flavus it was 560 µM (≈ 255 µg/mL); against Escherichia coli [6], 280 µM (≈ 127 µg/mL); in the test on Pseudomonas aeruginosa [7], 70 µM (≈ 31.8 µg/mL). For the same molecule, the MIC amounted to 140 µM (≈ 63.6 µg/mL) against Candida albicans [8] and 280 µM (≈ 127 µg/mL) in the test on Candida tropicalis.

Regarding `C#CCOc1c(OC)cc(/C=N/Nc2nccs2)c2c1CN1CCc3cc4c(cc3C1C2)OCO4` (stereo unspecified), the MIC stood at 130 µM (≈ 63.5 µg/mL) against Candida parapsilosis; 260 µM (≈ 127 µg/mL) in the test with Candida albicans [2]; 520 µM (≈ 254 µg/mL) against Micrococcus luteus; 130 µM (≈ 63.5 µg/mL) with Staphylococcus aureus [3]; 1050 µM (≈ 513 µg/mL) in the test on Saccharomyces cerevisiae; 1050 µM (≈ 513 µg/mL) against Pichia norvegensis. In addition, the MIC in the test with Bacillus subtilis turned out to be 520 µM (≈ 254 µg/mL); with Escherichia coli [5], 130 µM (≈ 63.5 µg/mL); in the test on Cyberlindnera jadinii it was 260 µM (≈ 127 µg/mL); with Aspergillus flavus it was 1050 µM (≈ 513 µg/mL); against Pseudomonas aeruginosa [7], 130 µM (≈ 63.5 µg/mL).

The MIC is the lowest concentration that inhibits growth of the organism.
